We go through 21 molecules from patent US8044048B2, “Derivatives of sulindac, use thereof and preparation thereof” (Southern Research Institute, priority 2006, dated 2011).

Read-outs that look alike come from different tables or passages of the source.

Data set [1] concerns human HT29 colon tumor cell line. As to the kind of experiment: Growth inhibitory activity / in vitro cytotoxicity against human HT29 colon tumor cells. The source says:
These toxicities include gastrointestinal, renal and hematological disturbances which results from COX-1 inhibition as well as cardiovascular toxicity which likely results from COX-2 inhibition.

For another data set, the system named is tumor cells. The data set can be described thus: Cytostatic and cytotoxic activity. The format is cell-based. The following applies: FIGS. 3A and 3B, compared with sulindac sulfide. The source says: Cytotoxic activity is defined as the ability the treatment to reduce cell number below the number when treatment was initiated and is an indicator of chemotherapeutic efficacy. Cytostasis is defined as the ability of the treatment to reduce cell number relative to untreated cells and is an indicator of chemopreventive efficacy.

Another data set deals with COX-1 (Homo sapiens, UniProt P23219). As to the kind of experiment: COX-1 inhibitory activity. The format is biochemical.
COX-1, sequence (P23219 24-599): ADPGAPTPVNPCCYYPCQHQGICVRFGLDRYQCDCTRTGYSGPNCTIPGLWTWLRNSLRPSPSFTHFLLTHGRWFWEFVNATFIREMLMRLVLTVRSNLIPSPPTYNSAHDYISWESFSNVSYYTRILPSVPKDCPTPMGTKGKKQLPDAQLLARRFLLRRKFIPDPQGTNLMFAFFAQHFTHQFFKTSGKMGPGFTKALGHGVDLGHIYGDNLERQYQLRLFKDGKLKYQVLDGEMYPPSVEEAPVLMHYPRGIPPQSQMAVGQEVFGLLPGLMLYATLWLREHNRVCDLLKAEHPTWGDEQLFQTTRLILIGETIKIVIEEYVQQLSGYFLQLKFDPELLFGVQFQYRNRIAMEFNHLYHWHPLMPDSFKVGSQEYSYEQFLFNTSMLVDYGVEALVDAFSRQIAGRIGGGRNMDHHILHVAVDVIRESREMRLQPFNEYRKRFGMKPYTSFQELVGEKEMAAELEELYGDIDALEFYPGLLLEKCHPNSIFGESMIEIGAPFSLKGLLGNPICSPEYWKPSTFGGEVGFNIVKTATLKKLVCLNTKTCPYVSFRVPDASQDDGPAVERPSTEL
For another data set, the target named is T1, COX-2 (Homo sapiens, UniProt P35354).
T1 sequence (P35354 18-604): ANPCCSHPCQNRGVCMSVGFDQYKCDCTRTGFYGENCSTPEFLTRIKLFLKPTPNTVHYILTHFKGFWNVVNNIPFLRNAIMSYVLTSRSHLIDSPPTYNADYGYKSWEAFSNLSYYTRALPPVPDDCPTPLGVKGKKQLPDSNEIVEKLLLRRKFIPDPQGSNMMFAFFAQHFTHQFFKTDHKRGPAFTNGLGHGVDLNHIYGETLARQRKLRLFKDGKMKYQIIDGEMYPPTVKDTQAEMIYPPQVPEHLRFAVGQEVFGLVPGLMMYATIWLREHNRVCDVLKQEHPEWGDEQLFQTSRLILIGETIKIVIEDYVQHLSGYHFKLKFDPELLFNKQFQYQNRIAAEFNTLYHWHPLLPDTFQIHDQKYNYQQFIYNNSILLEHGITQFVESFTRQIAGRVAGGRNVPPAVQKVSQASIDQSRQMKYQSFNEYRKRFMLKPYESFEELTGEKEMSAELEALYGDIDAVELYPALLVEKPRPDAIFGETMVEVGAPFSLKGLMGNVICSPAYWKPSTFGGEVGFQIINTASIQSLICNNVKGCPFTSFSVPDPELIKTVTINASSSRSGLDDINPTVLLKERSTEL
The data set can be described thus: COX-2 inhibitory activity. The class given is biochemical.

Data set [2] in a line: Oral bioavailability, plasma levels after oral administration. The format is in vivo.
Data set [3] is described as follows: Toxicity in mice, maximum tolerated dose. The format is in vivo. The method, then:
FIGS. 5A and 5B show the reduced toxicity of SRI 21009 in mice relative to sulindac. Following a once a day dosing schedule, the maximum tolerated dose of sulindac is estimated to be 50 mg/kg in comparison to 300 mg/kg for SRI 21009.

The test system of data set [4] is human colon HT29 colon tumor cells. The data set can be described thus: Antitumor activity in athymic nude mice implanted with HT29 tumor cells. The format is in vivo. The following applies: 300 mg/kg, once a day dosing schedule, HT29 xenograft.
Data set [5] has as its system panel of histologically diverse tumor cell types. As to the kind of experiment: Growth inhibitory activity against a panel of tumor cell types. The format is cell-based. The following applies: FIG. 2.
The mark [6] stands for this setting: Homo sapiens, HT-29, read-out: IC50 value, growth inhibitory activity.
[7] abbreviates: Homo sapiens, HT-29, read-out: cytotoxity IC50 values (50% inhibitory concentration).
[8] abbreviates: read-out: IC50 value, growth inhibitory activity, human HT29 colon tumor cell line, Table B upper part.
Where [9] appears, read: read-out: IC50, growth inhibitory activity, human HT29 colon tumor cell line, Table B lower part.

On to `CC1=C(CC(=O)NCCN(C)C)c2cc(F)ccc2C1=Cc1ccc([S+](C)[O-])cc1` (centres unmarked) [SRI 21004, N-[2-(Dimethylamino)ethyl]-5-fluoro-2-methyl-1-[[4-(methylsulfinyl)phenyl]methylene]-1H-indene-3-acetamide], for which the results for the IC50 in data set [1] (setting [6]) and in data set [1] (setting [7]) were 25.1 µM and 29.2 µM, respectively. Also, in the data set with tumor cells, the “cytotoxic activity (reduce cell number below the number when treatment was initiated)” value is on record as “greater potential for chemotherapeutic efficacy compared with sulindac sulfide”. As to `CC1=C(CC(=O)NCC2CCCN2C)c2cc(F)ccc2C1=Cc1ccc([S+](C)[O-])cc1` (centres unmarked) [SRI 21008, 5-Fluoro-2-methyl-N-[(1-methyl-2-pyrrolidinyl)methyl]-1-[[4-(methylsulfinyl)phenyl]methylene]-1H-indene-3-acetamide], the IC50 in data set [1] (setting [6]) worked out at 18.7 µM. With `CSc1ccc(/C=C2/C(C)=C(CC(=O)NCCN(C)C)c3cc(F)ccc32)cc1` [SRI 21009, N-[2-(Dimethylamino)ethyl]-5-fluoro-2-methyl-1-[[4-(methylsulfide)phenyl]methylene]-1H-indene-3-acetamide], the IC50 turned out to be 1.47 µM in data set [1] (setting [6]), 1.47 µM in data set [1] (setting [7]), 1480 µM against COX-1 and 164 µM against COX-2. Besides, the “sulindac sulfoxide, sulfone, or sulfide detected in the plasma” value in data set [2] (following SRI 21009 administration) is on record as “Negligible amounts”. Moreover, the achievable plasma levels result in data set [2] (oral administration, single dose of 200 mg/kg) was “exceeded the IC50 value for in vitro growth inhibition”. Besides, the MTD – broadly, the highest dose tested that stayed within the study's limit of toxicity – in data set [3] (mouse, in vivo) is approximately 300 mg/kg. Besides, in data set [4], the antitumor activity result was “as effective as sulindac at 50 mg/kg”. The “growth inhibitory activity across tumor cell types” value in data set [5] is listed as “enhanced sensitivity of tumor cells derived from colorectal tumors compared with other tumor types”. `CC1=C(CC(=O)NCCN2CCNCC2)c2cc(F)ccc2C1=Cc1ccc([S+](C)[O-])cc1` (centres unmarked) [SRI 21113, 5-Fluoro-2-methyl-1-[[4-(methylsulfinyl)phenyl]methylene]-N-[2-(1-piperazinyl)ethyl]-1H-indene-3-acetamide]: the IC50 in data set [1] (setting [6]) was determined as 76.9 µM.

For the molecule `CC1=C(CC(=O)NCCN2CCCCC2)c2cc(F)ccc2C1=Cc1ccc([S+](C)[O-])cc1` (centres unmarked) [SRI 21114, 5-Fluoro-2-methyl-1-[[4-(methylsulfinyl)phenyl]methylene]-N-[2-(1-piperidinyl)ethyl]-1H-indene-3-acetamide], the IC50 in data set [1] (setting [6]) was 19.7 µM.

Regarding `CC1=C(CC(=O)NCCc2cccnc2)c2cc(F)ccc2C1=Cc1ccc([S+](C)[O-])cc1` (centres unmarked) [SRI 21162, 5-Fluoro-2-methyl-1-[[4-(methylsulfinyl)phenyl]methylene]-N-[2-(3-pyridinyl)ethyl]-1H-indene-3-acetamide], the IC50 in data set [1] (setting [6]) came to 99.8 µM. Still for that read-out and setting: under `CC1=C(CC(=O)NCCN2CCCC2)c2cc(F)ccc2C1=Cc1ccc([S+](C)[O-])cc1` (centres unmarked) [SRI 21169, 5-Fluoro-2-methyl-1-[[4-(methylsulfinyl)phenyl]methylene]-N-[2-(1-pyrrolidinyl)ethyl]-1H-indene-3-acetamide] stands 17.2 µM; under `CC1=C(CC(=O)NCCN2CCOCC2)c2cc(F)ccc2C1=Cc1ccc([S+](C)[O-])cc1` (centres unmarked) [SRI 21178, 5-Fluoro-2-methyl-1-[[4-(methylsulfinyl)phenyl]methylene]-N-[2-(4-morpholinyl)ethyl]-1H-indene-3-acetamide], 114 µM. As for `CC1=C(CC(=O)NCCN)c2cc(F)ccc2C1=Cc1ccc([S+](C)[O-])cc1` (centres unmarked) [SRI 21185, N-(2-Aminoethyl)-5-fluoro-2-methyl-1-[[4-(methylsulfinyl)phenyl]methylene]-1H-indene-3-acetamide], in data set [1] (setting [6]), the IC50 is 85.2 µM.

Consider `CC1=C(CC(=O)NCCc2c[nH]cn2)c2cc(F)ccc2C1=Cc1ccc([S+](C)[O-])cc1` (centres unmarked) [SRI 21229], for which the IC50 in data set [1] (setting [8]) was determined as 32.6 µM. For `CC1=C(CC(=O)NCc2ccc(N(C)C)cc2)c2cc(F)ccc2C1=Cc1ccc([S+](C)[O-])cc1` (centres unmarked) [SRI 21275, N-[[4-(Dimethylamino)phenyl]methyl]-5-fluoro-2-methyl-1-[[4-(methylsulfinyl)phenyl]methylene]-1H-indene-3-acetamide], the IC50 in data set [1] (setting [6]) turned out to be 6.3 µM. For the molecule `CCN(CC)CCNC(=O)CC1=C(C)C(=Cc2ccc([S+](C)[O-])cc2)c2ccc(F)cc21` (centres unmarked) [SRI 21276], in data set [1] (setting [8]), the IC50 turned out to be 18.2 µM. Consider `CC1=C(CC(=O)N2CCN(C)CC2)c2cc(F)ccc2C1=Cc1ccc([S+](C)[O-])cc1` (centres unmarked) [SRI 21387, Ethanone, 2-[5-fluoro-2-methyl-1-[[4-(methylsulfinyl)phenyl]methylene]-1H-inden-3-yl]-1-(4-methylpiperazinyl)], for which the IC50 in data set [1] (setting [9]) amounted to 71 µM.

In the case of `CC1=C(CC(=O)NCCN(C)C)c2cc(F)ccc2/C1=C\c1ccc(S(C)(=O)=O)cc1` [SRI 21487], in data set [1] (setting [9]), the IC50 came to 10 µM.

Take `CSc1ccc(/C=C2/C(C)=C(CC(=O)NCc3ccc(N(C)C)cc3)c3cc(F)ccc32)cc1` [SRI 21540, N-[[4-(Dimethylamino)phenyl]methyl]-(Z)-5-fluoro-2-methyl-3-[[4-(methylthio)phenyl]methylene]-1H-indene-3-acetamide]: in data set [1] (setting [9]), the IC50 is 3.22 µM. The same measure, in the same setting: the figure for `CC1=C(CC(=O)Nc2ccc(N(C)C)cc2)c2cc(F)ccc2/C1=C\c1ccc([S+](C)[O-])cc1` (centres unmarked) [SRI 21590, N-[[4-(Dimethylamino)phenyl]-(Z)-5-fluoro-2-methyl-3-[[4-(methylsulfinyl)phenyl]methylene]]-1H-indene-3-acetamide] is 230 µM; for `CNCCN(C)C(=O)CC1=C(C)/C(=C/c2ccc(SC)cc2)c2ccc(F)cc21` [SRI 21596] it is 1.62 µM. `CSc1ccc(/C=C2/C(C)=C(CC(=O)Nc3ccc(N(C)C)cc3)c3cc(F)ccc32)cc1` [SRI 21623, N-[[4-(Dimethylamino)phenyl]-(Z)-5-fluoro-2-methyl-3-[[4-(methylthio)phenyl]methylene]]-1H-indene-3-acetamide]: the “solubility during the bioassay” value in data set [1] is “solubility issues during the bioassay”. In data set [1] (setting [9]), the IC50 is more than 100 µM. Take `CSc1ccc(/C=C2/C(C)=C(CC(=O)O)c3cc(F)ccc32)cc1` [Sulindac sulfide, reference compound]: the IC50 stood at 45.2 µM in data set [1] (setting [6]) and 71.2 µM in data set [1] (setting [7]).

`CC1=C(CC(=O)O)c2cc(F)ccc2/C1=C\c1ccc([S+](C)[O-])cc1` (centres unmarked) [Sulindac sulfoxide, Sulindac]: the IC50 in data set [1] (setting [8]) was 450 µM; in data set [1] (read-out: cytotoxity IC50 values (50% inhibitory concentration), human colon tumor cells, in vitro), 479 µM. In data set [3] (mice, once a day dosing schedule), this molecule yielded a maximum tolerated dose of approximately 50 mg/kg. For “N,2-Dimethyl-N-[2-(dimethylamino)ethyl]-5-fluoro-1-[[4-ethylsulfinyl)phenyl]methylene]-1H-indene-3-acetamide [SRI 21179]”, in data set [1] (setting [8]), the IC50 stood at 19.8 µM.
